Data published in ChEMBL document CHEMBL2412960, “Inhibition of Mycobacterium tuberculosis strains H37Rv and MDR MS-115 by a new set of C5 modified pyrimidine nucleosides” (Bioorg Med Chem, 2013).
Converted amounts (≈) assume the structure as drawn. The source made the active and inactive calls. No cut-off for these calls is given here.

Tests used:
Saccharomyces cerevisiae = test: Antifungal activity against Saccharomyces cerevisiae RIA 259; type: functional, organism-based
Aspergillus niger = test: Antifungal activity against Aspergillus niger INA 00760; type: functional, organism-based
Pseudomonas aeruginosa = test: Antibacterial activity against Pseudomonas aeruginosa ATCC 27853; type: functional, organism-based
Escherichia coli = test: Antibacterial activity against Escherichia coli ATCC 25922; type: functional, organism-based
Staphylococcus aureus [1] = test: Antibacterial activity against methicillin-resistant Staphylococcus aureus INA 00761; type: functional, organism-based
[2] = tested on: Leuconostoc mesenteroides; test: Antibacterial activity against vancomycin-resistant Leuconostoc mesenteroides VKPM B-4177; type: functional
Staphylococcus aureus [3] = test: Antibacterial activity against methicillin-susceptible Staphylococcus aureus FDA 209P; type: functional, organism-based
Micrococcus luteus = test: Antibacterial activity against Micrococcus luteus NCTC 8340; type: functional, organism-based
Bacillus mycoides = test: Antibacterial activity against Bacillus mycoides 537; type: functional, organism-based
Bacillus pumilus = test: Antibacterial activity against Bacillus pumilus NCTC 8241; type: functional, organism-based
Bacillus subtilis = test: Antibacterial activity against Bacillus subtilis ATCC 6633; type: functional, organism-based
[4] = tested on: Mycobacterium tuberculosis; test: Bacteriostatic activity against Mycobacterium tuberculosis H37Rv assessed as growth inhibition; type: functional
[5] = tested on: Mycobacterium tuberculosis; test: Bacteriostatic activity against Mycobacterium tuberculosis H37Rv assessed as growth inhibition at 5 ug/mL relative to control; type: functional; settings: read-out: GI
[6] = tested on: Mycobacterium tuberculosis; test: Bacteriostatic activity against Mycobacterium tuberculosis H37Rv assessed as growth inhibition at 10 ug/mL relative to control; type: functional; settings: read-out: GI
[7] = Cytotoxicity against human A549 cells after 72 hrs by MTT assay; type: cell-based; settings: read-out: CD50
[8] = Cytotoxicity against human Jurkat cells after 72 hrs by MTT assay; type: cell-based; settings: read-out: CD50
[9] = Cytotoxicity against African green monkey Vero cells after 72 hrs by MTT assay; type: cell-based; settings: chlorocebus sabaeus, read-out: CD50
[10] = tested on: Mycobacterium tuberculosis; test: Bacteriostatic activity against Mycobacterium tuberculosis H37Rv assessed as growth inhibition at 50 ug/mL relative to control; type: functional; settings: read-out: GI
[11] = tested on: Mycobacterium tuberculosis; test: Bacteriostatic activity against Mycobacterium tuberculosis H37Rv assessed as growth inhibition at 100 ug/mL relative to control; type: functional; settings: read-out: GI
[12] = tested on: Mycobacterium tuberculosis; test: Bacteriostatic activity against Mycobacterium tuberculosis H37Rv assessed as growth inhibition at 20 ug/mL relative to control; type: functional; settings: read-out: GI
[13] = tested on: Mycobacterium tuberculosis; test: Bacteriostatic activity against Mycobacterium tuberculosis H37Rv assessed as growth inhibition at 40 ug/mL relative to control; type: functional; settings: read-out: GI
[14] = tested on: Mycobacterium tuberculosis; test: Bacteriostatic activity against Mycobacterium tuberculosis H37Rv assessed as growth inhibition at 200 ug/mL relative to control; type: functional; settings: read-out: GI
[15] = tested on: Leuconostoc mesenteroides; test: Antibacterial activity against vancomycin-resistant Leuconostoc mesenteroides VKPM B-4177 at 95 ug/mL; type: functional

SMILES	Activity (Saccharomyces cerevisiae)	Activity (Aspergillus niger)	Activity (Pseudomonas aeruginosa)	Activity (Escherichia coli)	Activity (Staphylococcus aureus [1])	Activity [2]	Activity (Staphylococcus aureus [3])	Activity (Micrococcus luteus)	Activity (Bacillus mycoides)	Activity (Bacillus pumilus)	Activity (Bacillus subtilis)	MIC99 [4] [µg/mL]	inhibition of growth at 5 µg/mL [5] [%]	inhibition of growth at 10 µg/mL [6] [%]	CC50 at 72 h [7] [µg/mL]	CC50 at 72 h [8] [µg/mL]	CC50 at 72 h [9] [µg/mL]	inhibition of growth at 50 µg/mL [10] [%]	inhibition of growth at 20 µg/mL [12] [%]	further results
CCCCCCCCCCc1cn(Cc2cn([C@H]3C[C@H](O)[C@@H](CO)O3)c(=O)[nH]c2=O)nn1	inactive	inactive	inactive	inactive	inactive	inactive	inactive	inactive	inactive	inactive	inactive	10 (≈ 22.2 µM)	90	100	100 (≈ 222 µM)	100 (≈ 222 µM)	> 100			
CCCCCCCCCCCCOCc1cn([C@H]2C[C@H](NCC)[C@@H](CO)O2)c(=O)[nH]c1=O												10 (≈ 22 µM)	75	99	5 (≈ 11 µM)	5 (≈ 11 µM)	13 (≈ 28.7 µM)	100	100	inhibition of growth at 100 µg/mL [11]: 100%
CCCCCCCCc1cn(Cc2cn([C@H]3C[C@H](O)[C@@H](CO)O3)c(=O)nc2N)nn1												40 (≈ 95.1 µM)			> 100	> 100	> 100		90	inhibition of growth at 40 µg/mL [13]: 100%
CCCCCCCCCCCCCCOCc1cn([C@H]2C[C@H](O)[C@@H](CO)O2)c(=O)[nH]c1=O												200 (≈ 440 µM)					> 100			inhibition of growth at 200 µg/mL [14]: 100%
CCCCCCCCCCCCOCc1cn([C@@H]2C[C@H](O)[C@@H](CO)O2)c(=O)[nH]c1=O	inactive	inactive	inactive	inactive	inactive	inactive	inactive	inactive	inactive	inactive	inactive	20 (≈ 46.9 µM)		90	45 (≈ 105 µM)	40 (≈ 93.8 µM)	> 100	100	99	Activity [15]: Active; inhibition of growth at 100 µg/mL [11]: 100%
CCCCCCCCCCCCc1cn(Cc2cn([C@H]3C[C@H](O)[C@@H](CO)O3)c(=O)[nH]c2=O)nn1	inactive	inactive	inactive	inactive	inactive	inactive	inactive	inactive	inactive	inactive	inactive	10 (≈ 20.9 µM)	90	99	> 100	> 100	> 100		99	inhibition of growth at 40 µg/mL [13]: 100%
NNC(=O)c1ccncc1 [ISONIAZID]												0.1 (≈ 0.729 µM)								
CCCCCCCCCCCCOCc1cn([C@H]2C[C@H](O)[C@@H](CN)O2)c(=O)[nH]c1=O												20 (≈ 47 µM)		50	8 (≈ 18.8 µM)	7 (≈ 16.4 µM)	14 (≈ 32.9 µM)	100	100	inhibition of growth at 100 µg/mL [11]: 100%
CCCCCCCCc1cn(Cc2cn([C@H]3C[C@H](O)[C@@H](CO)O3)c(=O)[nH]c2=O)nn1	inactive	inactive	inactive	inactive	inactive	inactive	inactive	inactive	inactive	inactive	inactive	20 (≈ 47.4 µM)		90	> 100	> 100	> 100		99	inhibition of growth at 40 µg/mL [13]: 100%
CCCCCCCCCCCCOCc1cn([C@H]2C[C@H](N=[N+]=[N-])[C@@H](CO)O2)c(=O)[nH]c1=O												200 (≈ 443 µM)			10 (≈ 22.1 µM)	8 (≈ 17.7 µM)	15 (≈ 33.2 µM)			inhibition of growth at 200 µg/mL [14]: 100%
CCCCCCCCCCCCOCc1cn([C@H]2C[C@H](O)[C@@H](CI)O2)c(=O)[nH]c1=O												10 (≈ 18.6 µM)	90	100	> 100	> 100	70 (≈ 130 µM)	100	100	
